Assay results from US20080279843A1, “Method For Improving Insulin Sensitivity By Administering an Inhibitor of Antitrypsin” (Essential SkinCare, LLC, priority 2003, published 2008).

Tests used:
[1] = test system: differentiated rat L6 muscle cells; test: Synthesis of [14C]total lipid from radiolabeled glucose; type: cell-based; conditions: FIG. 4C, 5 hours
Method: (§1) Rat L6 skeletal muscle cells were obtained from the American Type Culture Collection, Rockville, Md. L6 cell monolayers were induced to differentiate in Minimal Essential Medium (MEM) containing 2% (v/v) fetal bovine serum (FBS) and 1% (v/v) antibiotic/antimycotic solution. The cells were fed fresh medium every 48 hours. Myoblast differentiation, which occurred by about the 7-9th day, was monitored by phase contrast microscopy. Differentiated L6 cells are widely used models for studying glucose metabolism in the skeletal muscle. The present study was focused on these cells, because skeletal muscle accounts for about 70-80% of total blood glucose metabolism in the human body.
To examine cellular glucose uptake and metabolism, differentiated (attached) cells in 12-well plates were incubated at 37° C. in a CO2 incubator (95% air: 5% CO2) with D-[^14C]glucose (1 μCi/mL) in 2% FBS-containing medium containing 5.5 mM unlabeled glucose for 0.5-6 hours as indicated at the corresponding Figures. […] Cells were washed twice with 3 ml medium to remove traces of medium containing unincorporated radioactivity. […]
Aliquots of the upper and lower phases were taken to scintillation vials to determine the amounts of radiolabeled glucose and total lipids, respectively, by liquid scintillation counting. […] No additional radioactivity could be removed from the well by neutralized 30% KOH. […]

[2] = test system: C57/Black female mice; test: Glucose tolerance test with insulin and purified AT (Example 3); type: in vivo; conditions: highly purified AT 1.2 mg/mouse i.p. 24 h prior to insulin; glucose 3 g/kg i.p.
Method: C57/Black female mice weighing 23-25 g were fasted for 16 hours. Five animals were used for each of the three treatment groups. The first treatment group received intraperitoneal injections of 1200 μg purified AT, i.e. AT purified by the procedure of Example 1. Exactly 23 hours and 45 minutes after the AT was administered to the first treatment group, the animals in the first and second treatment group received 0.5 I.U. of insulin. Exactly 15 minutes after the insulin was administered (i.e., 24 hours after AT was administered to the first treatment group), glucose (3 g/kg) was injected intraperitoneally into the first, second and third treatment group. Blood samples were immediately measured with the fast Glucose C test (Wako Chemicals Inc. Richmond, Va., USA). The data presented are the mean ±S.D. of five determinations, one with each animal.

[3] = test system: differentiated rat L6 muscle cells; test: Cellular uptake of D-[14C]glucose; type: cell-based
Method: as §1
(§2) To examine cellular glucose uptake and metabolism, differentiated (attached) cells in 12-well plates were incubated at 37° C. in a CO2 incubator (95% air: 5% CO2) with D-[^14C]glucose (1 μCi/mL) in 2% FBS-containing medium containing 5.5 mM unlabeled glucose for 0.5-6 hours as indicated at the corresponding Figures. At the termination of incubation, the medium was removed. An aliquot of the medium was taken to determine the loss of [^14C]glucose from the medium which corresponds to its uptake by cells. Cells were washed twice with 3 ml medium to remove traces of medium containing unincorporated radioactivity. Ice-cold 99.8% methanol/0.2% water (v/v) mixture (1 ml) was then added to the monolayers and cells were extracted for 2 hours at −20° C. […] The methanol phase (1 ml) and a following 1 ml methanol wash were added to 2 ml chloroform followed by the addition of 3 ml water. Of the resulting two phases (separation was facilitated by brief centrifugation), the lower phase contained the total radiolabeled lipids, while the upper phase contained [^14C]glucose.
(§3) Aliquots of the upper and lower phases were taken to scintillation vials to determine the amounts of radiolabeled glucose and total lipids, respectively, by liquid scintillation counting. Precipitated [^14C]glycogen was suspended in 0.75 ml of 1 M NaOH and transferred to scintillation vial. This procedure was repeated with another 0.75 ml aliquot of NaOH. To neutralize the suspension, […] (approximately 150 μL) was then added to the vials, followed by the addition of 8.5 ml Ecolume (scintillation fluid). While the 1 M NaOH suspension contained some particulate material (mostly protein which was not labeled with radiolabeled glucose), no precipitate remained in the suspension after addition of Ecolume. […] No additional radioactivity could be removed from the well by neutralized 30% KOH.
(§4) Three groups of differentiated L6 cells, incubated in 12-well plates in 2% FBS-containing medium, were treated as follows. A first control group ([…]) was untreated. A second group (▴) was treated with 500 nM insulin for 30 min. A third group (▪) was treated first with 0.4 mg/ml of AT followed by an addition of 500 nM insulin for 30 min. Following the addition of D-[^14C]glucose, each group was incubated in the continuous presence of insulin and AT, as described above, for 0.5-6 hours.
Four groups of differentiated L6 cells, incubated in 12-well plates in 2% FBS-containing medium, were treated as follows. A first control group was untreated. A second group was treated with 500 nM insulin for 30 min. A third group was treated with 0.05 to 0.4 mg/ml of AT for 10 min. Finally, a fourth group was treated with 0.05 to 0.4 mg/ml of AT for 10 min followed by the addition of 500 nM insulin for 30 min. […]

[4] = test system: differentiated rat L6 muscle cells; test: Synthesis of [14C]glycogen from radiolabeled glucose; type: cell-based
Method: as §1, §2, §3
In some experiments, a published procedure [Huang, D., Cheung, A. T., Parsons, J. T. and Bryer-Ash, M. “Focal adhesion kinase (FAK) regulates insulin-stimulated glycogen synthesis in hepatocytes.” J. Biol. Chem. 277, 18151-18160, (2002)] was used to determine glucose incorporation into glycogen in a method similar to the one described above. After incubations with [^14C] glucose, cells were solubilized with 20% KOH for 2 hours. Lysates were extracted with 8% […], neutralized with 2.0 M HCl, then boiled for 5 min. The total glycogen was precipitated by the addition of 80% ethanol (final concentration) for 2 hours at −20° C. followed by centrifugation at 1100×g for 10 min. This step was repeated.
After the pellets had been re-dissolved in distilled water, the samples were precipitated again using the same method described above, and yielded essentially the same results. In subsequent experiments the initial methanol precipitation method described above was used because it allowed for analysis of cellular glucose, glycogen and lipids from the same sample.
as §4, with “Following the addition of D-[^14C]glucose, each group was incubated in the continuous presence of insulin and AT, as described above, for 0.5-6 hours.” left out

[5] = 0.4 mg/ml AT, 500 nM insulin, 30 min incubation

Question: How did the “Effect of AT on cellular level of [14C]total lipid in the absence of insulin” value ([1]; 0.05 to 0.4 mg/ml AT) turn out when α1-antitrypsin [AT] was run?
Answer: The value was “did not significantly affect”.

Question: What about the “Decrease of synthesis of [14C]total lipid by AT in the presence of insulin” value ([1]; 0.2 to 0.4 mg/ml AT, 500 nM insulin) of the same substance?
Answer: Its value is “at least 50%”.

Question: What about the “Effect of AT on the action of insulin on blood glucose level” value [2] of the same substance?
Answer: Its value is “blocked the action of insulin”.

Question: And the “Effect of AT on the insulin effect on cellular [14C]glucose, short incubation” value [3, 5]?
Answer: The value was “no such inhibitory effects”.

Question: And the “Effect of AT on insulin-stimulated uptake of D-[14C]glucose” value ([3]; FIG. 3A, 0.4 mg/ml purified AT, incubations for 2 hrs or 6 hours)?
Answer: The value was “inhibited both insulin effects”.

Question: What about the “Effect of AT on cellular level of [14C]glucose in the absence of insulin” value ([3]; FIG. 4A, 0.05 to 0.4 mg/ml AT, 5 hours) of the same substance?
Answer: Its value is “did not significantly affect”.

Question: And the “Decrease of cellular level of [14C]glucose by AT in the presence of insulin” value ([3]; FIG. 4A, 0.2 to 0.4 mg/ml AT, 500 nM insulin, 5 hours)?
Answer: Its value is “at least 50%”.

Question: What about the “Effect of AT on the insulin effect on [14C]glycogen, short incubation” value [4, 5] of the same substance?
Answer: The value was “no such inhibitory effects”.

Question: What about the “Effect of AT on insulin-stimulated synthesis of [14C]glycogen” value ([4]; FIG. 3B, 0.4 mg/ml purified AT, incubations for 2 hrs or 6 hours) of the same substance?
Answer: Its value is “inhibited both insulin effects”.

Question: And the “Effect of AT on cellular level of [14C]glycogen in the absence of insulin” value ([4]; FIG. 4B, 0.05 to 0.4 mg/ml AT, 5 hours)?
Answer: Its value is “did not significantly affect”.

Question: What about the “Decrease of synthesis of cellular [14C]glycogen by AT in the presence of insulin” value ([4]; FIG. 4B, 0.2 to 0.4 mg/ml AT, 500 nM insulin, 5 hours) of the same substance?
Answer: The value was “at least 50%”.

Question: What about the “Inhibition by AT of the insulin effect on [14C]glycogen synthesis” value ([4]; FIG. 5, 0.4 mg/ml AT, 500 nM insulin, 5 hours) of the same substance?
Answer: The value was “about 70%”.
